# Data taken from patent US7875625B2, “Cyclohepta[b]pyridine-3-carbonylguanidine derivative and pharmaceutical product containing same” (Toa Eiyo Ltd., priority 2005, dated 2011).
# Structures can show the parent of a compound that is named as a salt.
# Assays:
# Na^+/H^+ exchanger (NHE) = target: T1, Na^+/H^+ exchanger (NHE) (Rattus norvegicus, UniProt P26431); assay: NHE inhibitory effect test (swelling of rat platelets induced by sodium propionate); type: cell-based; settings: for IC50: rat platelet-rich plasma, sodium propionate buffer pH 6.7, 300 μM Amiloride taken as 100% inhibition, Probit method; for NHE inhibitory activity (in words): compared with the control compound
# T1 construct: from tissue; host or cells: platelet-rich plasma from Wistar rat blood
# Protocol: The NHE inhibitory activity was measured according to the method by Scholz et al. [British Journal of Pharmacology, Vol. 109, p. 562-568 (1993)], taking the swelling of rat platelets induced by sodium propionate as an index.
# Under etherization, blood was collected (8 mL) from the abdominal aorta of a Wistar rat, and 1 mL of a citrate dextrose solution as an anticoagulant was added. The blood sample was immediately centrifuged at 90×g for 10 minutes, and then the collected supernatant was taken as platelet-rich plasma. Subsequently, to 250 μL of a 140 mM sodium propionate buffer solution containing the test compound dissolved in dimethylsulfoxide (pH 6.7, final dimethylsulfoxide concentration 1%), the platelet-rich plasma prepared in the above (number of platelet; 10×10^6/50 μL) was added, and the decrease in the absorbance associated with the swelling of platelets was measured over time with a Hematracer (NKK Corp.).
# The rate of decrease in the absorbance at 20 seconds after the addition of the platelet-rich plasma was taken as the NHE activity, and the inhibitory activity of the respective compounds was expressed as a relative activity, while the action obtained upon addition of 300 μM of Amiloride was taken as 100% inhibition.
# In addition, the test results were obtained by calculating the concentration at which the inhibitory activity of the test compound becomes 50% (IC50 value), by a Probit method.
# [1] = system: reperfusion-induced arrhythmia upon myocardial ischemia; assay: Reperfusion-induced arrhythmia inhibitory action test; type: in vivo, rat; settings: male SD rats, 3.62 mmol/L, 1 mL/kg intravenous, within 10 minutes after reperfusion
# Protocol: Subsequently, in evaluation of the in vivo NHE inhibitory action, the effect of the test compound on reperfusion-induced arrhythmia upon myocardial ischemia was evaluated according to the method of Aihara et al. [European Journal of Pharmacology, Vol. 404, p. 221-229 (2000)]. Under anesthesia using pentobarbital sodium (60 mg/kg, intraperitoneal administration), cannulae were inserted into trachea, femoral vein and carotid artery of male SD rats ([…]) for artificial ventilation, drug administration and blood pressure measurement, respectively. The blood pressure was measured using a strain pressure amplifier via a pressure transducer, while the heart rate was measured from the blood pressure pulse wave using a cardiotachometer. Furthermore, an electrocardiogram (lead II) was measured from the electrodes attached to each four limbs. Next, under artificial ventilation, left thoracotomy was performed and a snare (5-0 nylon) was loosely placed around a blood vessel which was about 3 mm apart from the origin of the left coronary artery. Thereafter, it was confirmed that arrhythmia was not occurred for 10 minutes, and then the snare was fastened to induce local myocardial ischemia. Furthermore, after 4 minutes of myocardial ischemia, the compound was intravenously administered for 1 minute, and after 5 minutes of myocardial ischemia, the snare was loosened, then the arrhythmia occurred after reperfusion was recorded and analyzed with an arrhythmia analyzer (Softron Co., Ltd.), thereby the anti-arrhythmic action of the compound was evaluated. […] The control group was administered with physiological saline.
# With regard to the ventricular fibrillation (Vf) which occurred within 10 minutes after reperfusion (in the cases of halfway death, up to the time point where cardiac arrest was confirmed), arrhythmia analysis was performed according to the Guidelines for Lambeth Convention [Cardiovascular research, Vol. 22, p. 447-455, 1988], and evaluation was made in terms of the frequency of Vf occurrence, cumulative duration time of Vf, and the mortality.
# The frequency of Vf occurrence, cumulative duration of Vf, and the mortality for the respective test compounds are presented in Table 2.
# [2] = Metabolic stability test in rat (generation of control compound in plasma); type: in vivo; settings: male SD rats; for Plasma concentration of the control compound, after 5 min / Plasma concentration of the control compound, after 15 min / Plasma concentration of the control compound, after 30 min / Plasma concentration of the control compound, after 60 min / Plasma concentration of the control compound, after 120 min: equivalent of 1 mg/kg control compound via tail vein, LC/MS/MS; for Decomposition into the Control Compound in vivo (in words): tail vein, plasma 5-120 min
# Description: The compound represented by Formula (1) of the present invention has a structure in which the hydroxyl group on the 9-position of a 9-hydroxymethyl-cyclohepta[b]pyridine-3-carbonylguanidine derivative is converted to a specific substituent. However, if the compound is metabolized in vivo to remove the specific substituent from the compound, there may be generated the original 9-hydroxymethyl-cyclohepta[b]pyridine-3-carbonylguanidine derivative, which has toxic effects on the central nervous system. Thus, the inventive compounds as synthesized in Examples were administered in vivo to study whether the control compound, which was the corresponding 9-hydroxymethyl product, was generated.
# Male SD rats (7 weeks old) were administered at 1 mg/kg (an amount calculated excluding salts) of the control compound, an equivalent amount of the Inventive Compound 2, 4, 6, 7 or 12, or Reference Compound 20, through the tail vein. After administration, about 0.2 mL of blood samples were collected after 5, 15, 30, 60 and 120 minutes, and the blood samples were centrifuged at 4° C. at a speed of rotation of 15000 for 15 minutes, thus to separate the supernatant plasma. The concentration of the control compound in the plasma was measured by LC/MS/MS. The measurement results were shown as +++ when the detected plasma concentration of the control compound is 200 ng/mL or greater; ++ for more than 100 ng/mL and less than 200 ng/mL; + for more than 20 ng/mL and less than 100 ng/mL; and − for less than 20 ng/mL or no detection.
# male mice = assay: Toxicity test with 2-days repeated intraperitoneal administration in mouse; type: in vivo; settings: equivalent of 300 mg/kg control compound intraperitoneally once a day for 2 days
# Protocol: For three male mice in each group, 300 mg/kg of the Control Compound (an amount calculated excluding salts), or an equivalent amount of the Inventive Compound 2, 4, 6, 7 or 12 were intraperitoneally administered once a day for 2 days, and a histopathological tests were performed. The Control Compound, and the Inventive Compounds 2, 4 and 6 were suspended in a 0.5% tragacanth gum solution, and the Inventive Compound 7 was suspended in a 10 DMSO-containing 0.5% tragacanth gum solution, while the Inventive Compound 12 was suspended in olive oil. For the histopathological test, in order to make a more thorough examination of central nervous toxicity, the brain was examined after whole body was subjected to perfusion fixation with a 4% formaldehyde in neutral phosphate buffer as a fixing solution using a liquid transporting pump under pentobarbital sodium anesthesia.
# Beagle dogs = assay: Toxicity test after 4-days repeated intravenous administration in beagle dogs; type: in vivo, dog; settings: equivalent of 30 mg/kg control compound intravenously once a day for 4 days
# Protocol: With one male and one female dogs in each group, 30 mg/kg of the Control Compound dissolved in physiological saline (an amount calculated excluding salts), or an equivalent amount of the Inventive Compound 2, 4, 6 or 8 was repeatedly administered intravenously once a day for 4 days, and general symptom observation and pharmacological histopathologic examination were performed.
# T1 sequence (P26431 whole entry): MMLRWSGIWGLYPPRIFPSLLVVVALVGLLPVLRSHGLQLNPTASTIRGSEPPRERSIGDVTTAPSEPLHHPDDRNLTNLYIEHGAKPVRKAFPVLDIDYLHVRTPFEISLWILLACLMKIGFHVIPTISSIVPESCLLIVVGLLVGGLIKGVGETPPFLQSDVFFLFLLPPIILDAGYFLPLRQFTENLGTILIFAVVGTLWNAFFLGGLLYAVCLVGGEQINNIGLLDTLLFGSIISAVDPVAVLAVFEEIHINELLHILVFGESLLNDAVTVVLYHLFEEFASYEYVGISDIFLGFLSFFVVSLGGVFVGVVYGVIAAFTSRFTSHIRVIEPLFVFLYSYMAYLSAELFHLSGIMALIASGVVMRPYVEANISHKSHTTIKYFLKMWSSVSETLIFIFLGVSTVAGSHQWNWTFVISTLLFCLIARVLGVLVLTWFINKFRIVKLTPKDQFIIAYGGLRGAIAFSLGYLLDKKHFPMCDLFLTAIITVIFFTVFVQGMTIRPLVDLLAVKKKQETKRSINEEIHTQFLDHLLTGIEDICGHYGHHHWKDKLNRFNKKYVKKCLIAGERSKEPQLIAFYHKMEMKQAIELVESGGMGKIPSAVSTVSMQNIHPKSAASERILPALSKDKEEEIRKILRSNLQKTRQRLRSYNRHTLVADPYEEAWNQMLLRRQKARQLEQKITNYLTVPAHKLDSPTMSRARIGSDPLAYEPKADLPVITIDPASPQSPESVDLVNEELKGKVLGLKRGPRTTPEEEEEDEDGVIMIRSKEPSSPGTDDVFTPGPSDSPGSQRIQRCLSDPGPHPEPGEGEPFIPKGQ
Structure (SMILES),IC50 (Na^+/H^+ exchanger (NHE)),Cumulative duration of Vf [1],Frequency of Vf occurrence [1],Mortality [1],"Plasma concentration of the control compound, after 5 min [2]","Plasma concentration of the control compound, after 15 min [2]","Plasma concentration of the control compound, after 30 min [2]","Plasma concentration of the control compound, after 60 min [2]","Plasma concentration of the control compound, after 120 min [2]",Decomposition into the Control Compound in vivo (in words) [2],Histopathological finding in the brain (male mice),General condition (symptom observation) (Beagle dogs),Pathologic examination of the brain (Beagle dogs),NHE inhibitory activity (in words) (Na^+/H^+ exchanger (NHE))
"Cc1nc2c(cc1C(=O)NC(=N)N)CCCCC2COC(=O)NCCOCCOS(=O)(=O)O (stereo not drawn) [Inventive Compound 7, 2-[2-(3-Guanidinocarbonyl-2-methyl-6,7,8,9-tetrahydro-5H-cyclohepta[b]pyridin-9-ylmethyloxycarbonylamino)ethoxy]ethyl hydrogen sulfate]",313 nM,15.4 s,40%,0%,− (− for less than 20 ng/mL or no detection),− (− for less than 20 ng/mL or no detection),− (− for less than 20 ng/mL or no detection),− (− for less than 20 ng/mL or no detection),− (− for less than 20 ng/mL or no detection),not detected at any time point,any histologic finding which could be caused by drug administration was not recognized,–,–,–
"Cc1nc2c(cc1C(=O)NC(=N)N)CCCCC2COC(=O)NCCOCCOS(=O)(=O)[O-].[Na+] (stereo not drawn) [Inventive Compound 8, 2-[2-(3-Guanidinocarbonyl-2-methyl-6,7,8,9-tetrahydro-5H-cyclohepta[b]pyridin-9-ylmethyloxycarbonylamino)ethoxy]ethyl sulfate sodium salt]",–,–,–,–,–,–,–,–,–,–,–,only vomiting was recognized,any histologic finding which could be caused by drug administration was not recognized,–
"Cc1nc2c(cc1C(=O)NC(=N)N)CCCCC2COC(=O)NCCOCCOCCOCCOCCOCCOS(=O)(=O)[O-].[Na+] (stereo not drawn) [Inventive Compound 10, 17-(3-Guanidinocarbonyl-2-methyl-6,7,8,9-tetrahydro-5H-cyclohepta[b]pyridin-9-ylmethyloxycarbonylamino)-3,6,9,12,15-pentaoxaheptadecan-1-yl sulfate sodium salt]",291 nM,11.1 s,67%,0%,–,–,–,–,–,–,–,–,–,–
"Cc1nc2c(cc1C(=O)NC(=N)N)CCCCC2COC(=O)N[C@H]1CO[C@H]2[C@@H]1OC[C@H]2OS(=O)(=O)O (stereo partly drawn) [Inventive Compound 12, 2-Deoxy-1,4:3,6-dianhydro-2-(3-guanidinocarbonyl-2-methyl-6,7,8,9-tetrahydro-5H-cyclohepta[b]pyridin-9-ylmethyloxycarbonylamino)-D-glucitol-5-yl hydrogen sulfate]",227 nM,0.0 s,0%,0%,− (− for less than 20 ng/mL or no detection),− (− for less than 20 ng/mL or no detection),− (− for less than 20 ng/mL or no detection),− (− for less than 20 ng/mL or no detection),− (− for less than 20 ng/mL or no detection),not detected at any time point,any histologic finding which could be caused by drug administration was not recognized,–,–,–
"Cc1nc2c(cc1C(=O)NC(=N)N)CCCCC2COP(=O)([O-])[O-].[Na+].[Na+] (stereo not drawn) [Reference Compound 20, 3-Guanidinocarbonyl-2-methyl-6,7,8,9-tetrahydro-5H-cyclohepta[b]pyridin-9-ylmethyl phosphate disodium salt, reference compound]",662 nM,46.8 s,80%,40%,+++ (+++ when the detected plasma concentration of the control compound is 200 ng/mL or greater),++ (++ for more than 100 ng/mL and less than 200 ng/mL),+ (+ for more than 20 ng/mL and less than 100 ng/mL),+ (+ for more than 20 ng/mL and less than 100 ng/mL),− (− for less than 20 ng/mL or no detection),rapidly degraded to the Control Compound,–,–,–,–
"N=C(N)NC(=O)c1cc2c(nc1COS(=O)(=O)O)CCCCC2 [Reference Compound 22, 3-Guanidinocarbonyl-6,7,8,9-tetrahydro-5H-cyclohepta[b]pyridin-2-ylmethyl hydrogen sulfate, reference compound]",> 100000 nM,–,–,–,–,–,–,–,–,–,–,–,–,significant lowering in the activity
"Cc1nc2c(cc1C(=O)NC(=N)N)C(OS(=O)(=O)O)CCCC2 (stereo not drawn) [Reference Compound 23, 3-Guanidinocarbonyl-2-methyl-6,7,8,9-tetrahydro-5H-cyclohepta[b]pyridin-5-yl hydrogen sulfate, reference compound]",37100 nM,–,–,–,–,–,–,–,–,–,–,–,–,significant lowering in the activity
